Columns and labels:
Assay type in all cases: functional, organism-based
[1] = target: T1, Solute carrier organic anion transporter family member 1A1 (Mus musculus, UniProt Q9QXZ6); experiment: (§1) TP_TRANSPORTER: RT-PCR in vivo, liver of CD-1 mouse
T1 sequence (Q9QXZ6 whole entry): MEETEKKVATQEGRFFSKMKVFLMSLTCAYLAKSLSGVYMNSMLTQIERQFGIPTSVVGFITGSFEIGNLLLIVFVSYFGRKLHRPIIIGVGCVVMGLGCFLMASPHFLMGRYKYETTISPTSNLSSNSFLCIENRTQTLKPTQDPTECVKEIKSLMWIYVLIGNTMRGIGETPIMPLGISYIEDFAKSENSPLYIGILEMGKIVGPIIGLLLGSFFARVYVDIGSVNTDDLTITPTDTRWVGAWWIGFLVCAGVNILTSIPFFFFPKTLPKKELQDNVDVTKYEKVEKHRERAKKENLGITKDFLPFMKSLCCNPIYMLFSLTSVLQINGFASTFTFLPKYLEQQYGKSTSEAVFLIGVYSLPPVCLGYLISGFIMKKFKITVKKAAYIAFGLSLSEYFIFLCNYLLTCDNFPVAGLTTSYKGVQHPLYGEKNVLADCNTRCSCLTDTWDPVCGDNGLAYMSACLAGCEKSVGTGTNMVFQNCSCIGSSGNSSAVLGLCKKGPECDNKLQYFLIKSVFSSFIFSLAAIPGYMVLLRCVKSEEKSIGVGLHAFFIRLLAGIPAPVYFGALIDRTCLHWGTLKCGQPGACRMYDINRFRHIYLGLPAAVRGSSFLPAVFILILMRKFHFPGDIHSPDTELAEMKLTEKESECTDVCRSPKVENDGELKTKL

[2] = target: T2, Solute carrier organic anion transporter family member 1A4 (Mus musculus, UniProt Q9EP96); experiment: as §1
T2 sequence (Q9EP96 whole entry): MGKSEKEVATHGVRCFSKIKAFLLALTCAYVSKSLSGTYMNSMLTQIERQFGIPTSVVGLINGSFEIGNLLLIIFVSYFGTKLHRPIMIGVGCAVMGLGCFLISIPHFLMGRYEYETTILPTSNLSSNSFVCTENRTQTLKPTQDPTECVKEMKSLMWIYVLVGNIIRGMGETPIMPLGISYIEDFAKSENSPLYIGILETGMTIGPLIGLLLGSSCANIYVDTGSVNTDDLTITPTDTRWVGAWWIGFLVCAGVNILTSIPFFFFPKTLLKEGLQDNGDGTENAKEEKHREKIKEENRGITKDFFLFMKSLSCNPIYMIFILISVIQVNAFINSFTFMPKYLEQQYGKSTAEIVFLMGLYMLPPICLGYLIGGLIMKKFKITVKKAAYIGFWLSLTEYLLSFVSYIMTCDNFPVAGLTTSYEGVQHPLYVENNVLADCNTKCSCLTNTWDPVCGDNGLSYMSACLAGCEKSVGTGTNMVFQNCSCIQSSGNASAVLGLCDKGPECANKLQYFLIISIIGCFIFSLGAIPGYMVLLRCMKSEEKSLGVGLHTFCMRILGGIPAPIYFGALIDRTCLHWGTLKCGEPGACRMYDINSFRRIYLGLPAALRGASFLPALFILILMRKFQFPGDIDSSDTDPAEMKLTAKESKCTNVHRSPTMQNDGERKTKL

[3] = target: Multidrug resistance-associated protein 1 (Mus musculus, UniProt O35379); experiment: as §1
Multidrug resistance-associated protein 1, sequence (O35379 whole entry): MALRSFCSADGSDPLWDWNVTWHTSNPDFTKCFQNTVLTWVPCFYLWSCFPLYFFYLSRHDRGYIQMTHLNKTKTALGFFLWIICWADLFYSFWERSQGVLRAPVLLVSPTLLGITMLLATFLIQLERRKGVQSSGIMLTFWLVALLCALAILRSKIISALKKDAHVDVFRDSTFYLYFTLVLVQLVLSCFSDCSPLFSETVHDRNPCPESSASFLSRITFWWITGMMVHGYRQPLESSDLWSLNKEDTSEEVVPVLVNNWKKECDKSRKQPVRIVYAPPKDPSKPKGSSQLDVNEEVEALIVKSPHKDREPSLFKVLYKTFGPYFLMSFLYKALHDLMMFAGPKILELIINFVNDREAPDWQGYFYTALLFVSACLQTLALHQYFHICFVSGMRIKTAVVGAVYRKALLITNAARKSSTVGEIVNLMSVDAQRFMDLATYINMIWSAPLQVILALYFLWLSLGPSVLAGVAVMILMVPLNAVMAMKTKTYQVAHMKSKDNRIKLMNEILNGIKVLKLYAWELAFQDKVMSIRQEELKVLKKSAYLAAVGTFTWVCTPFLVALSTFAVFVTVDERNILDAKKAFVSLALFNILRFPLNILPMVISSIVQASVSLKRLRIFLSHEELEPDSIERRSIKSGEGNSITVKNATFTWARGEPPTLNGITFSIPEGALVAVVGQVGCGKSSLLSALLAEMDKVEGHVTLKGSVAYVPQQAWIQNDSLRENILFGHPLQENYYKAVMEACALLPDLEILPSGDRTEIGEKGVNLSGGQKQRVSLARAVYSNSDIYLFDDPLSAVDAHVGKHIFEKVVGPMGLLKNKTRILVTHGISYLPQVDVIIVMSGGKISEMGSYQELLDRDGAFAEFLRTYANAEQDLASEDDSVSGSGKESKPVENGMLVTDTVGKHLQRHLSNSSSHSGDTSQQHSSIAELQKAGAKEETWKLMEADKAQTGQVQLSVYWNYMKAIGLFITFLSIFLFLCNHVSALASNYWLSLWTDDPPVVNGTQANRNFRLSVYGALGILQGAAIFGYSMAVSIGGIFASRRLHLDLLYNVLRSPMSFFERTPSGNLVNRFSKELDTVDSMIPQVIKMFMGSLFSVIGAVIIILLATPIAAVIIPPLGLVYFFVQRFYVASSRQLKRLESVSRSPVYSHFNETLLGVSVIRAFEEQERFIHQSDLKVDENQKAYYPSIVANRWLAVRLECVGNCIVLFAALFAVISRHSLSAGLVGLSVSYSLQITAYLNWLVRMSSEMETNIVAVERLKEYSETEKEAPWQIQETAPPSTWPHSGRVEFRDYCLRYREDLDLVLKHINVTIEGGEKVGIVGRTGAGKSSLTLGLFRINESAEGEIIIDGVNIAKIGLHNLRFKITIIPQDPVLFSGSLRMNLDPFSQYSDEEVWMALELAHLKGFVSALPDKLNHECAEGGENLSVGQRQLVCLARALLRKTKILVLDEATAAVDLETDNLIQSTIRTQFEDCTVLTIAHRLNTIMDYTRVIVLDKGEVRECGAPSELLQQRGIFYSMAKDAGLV

[4] = target: T3, Bile salt export pump (Mus musculus, UniProt Q9QY30); experiment: as §1
T3 sequence (Q9QY30 whole entry): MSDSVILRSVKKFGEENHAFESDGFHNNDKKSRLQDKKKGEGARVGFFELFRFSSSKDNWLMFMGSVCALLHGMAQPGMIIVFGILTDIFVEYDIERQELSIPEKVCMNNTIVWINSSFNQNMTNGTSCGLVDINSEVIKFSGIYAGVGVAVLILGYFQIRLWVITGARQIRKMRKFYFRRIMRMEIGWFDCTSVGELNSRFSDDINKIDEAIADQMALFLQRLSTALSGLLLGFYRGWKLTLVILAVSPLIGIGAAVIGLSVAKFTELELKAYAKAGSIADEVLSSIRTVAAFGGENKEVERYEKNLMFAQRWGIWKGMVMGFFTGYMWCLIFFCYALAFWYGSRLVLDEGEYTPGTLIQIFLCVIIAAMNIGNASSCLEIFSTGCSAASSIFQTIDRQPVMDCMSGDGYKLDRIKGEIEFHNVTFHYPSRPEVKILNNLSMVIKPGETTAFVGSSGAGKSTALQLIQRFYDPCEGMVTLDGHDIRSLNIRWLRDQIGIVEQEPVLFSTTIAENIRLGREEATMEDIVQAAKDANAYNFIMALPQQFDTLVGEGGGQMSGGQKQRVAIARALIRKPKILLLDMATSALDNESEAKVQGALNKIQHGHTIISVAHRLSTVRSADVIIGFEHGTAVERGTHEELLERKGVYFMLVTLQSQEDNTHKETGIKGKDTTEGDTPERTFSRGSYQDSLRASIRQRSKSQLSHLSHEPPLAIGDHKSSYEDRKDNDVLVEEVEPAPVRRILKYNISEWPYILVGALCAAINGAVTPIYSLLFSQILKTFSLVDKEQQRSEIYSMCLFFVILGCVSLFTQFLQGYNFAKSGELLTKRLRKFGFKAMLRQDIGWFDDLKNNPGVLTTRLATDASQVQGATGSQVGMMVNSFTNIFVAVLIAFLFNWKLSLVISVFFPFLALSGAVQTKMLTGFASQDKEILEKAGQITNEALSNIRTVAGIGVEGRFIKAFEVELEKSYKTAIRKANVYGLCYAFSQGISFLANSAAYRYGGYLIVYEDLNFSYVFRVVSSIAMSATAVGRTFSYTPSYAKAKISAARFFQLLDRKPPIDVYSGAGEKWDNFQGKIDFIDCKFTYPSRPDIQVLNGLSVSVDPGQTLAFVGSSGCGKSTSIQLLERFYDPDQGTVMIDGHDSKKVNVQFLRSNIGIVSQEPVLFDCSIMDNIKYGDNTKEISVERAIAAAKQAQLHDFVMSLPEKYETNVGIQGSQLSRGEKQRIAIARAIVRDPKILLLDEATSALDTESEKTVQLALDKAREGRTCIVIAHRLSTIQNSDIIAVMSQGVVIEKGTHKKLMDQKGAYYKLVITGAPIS

[5] = target: ATP-binding cassette sub-family C member 2 (Mus musculus, UniProt Q8VI47); experiment: as §1
ATP-binding cassette sub-family C member 2, sequence (Q8VI47 whole entry): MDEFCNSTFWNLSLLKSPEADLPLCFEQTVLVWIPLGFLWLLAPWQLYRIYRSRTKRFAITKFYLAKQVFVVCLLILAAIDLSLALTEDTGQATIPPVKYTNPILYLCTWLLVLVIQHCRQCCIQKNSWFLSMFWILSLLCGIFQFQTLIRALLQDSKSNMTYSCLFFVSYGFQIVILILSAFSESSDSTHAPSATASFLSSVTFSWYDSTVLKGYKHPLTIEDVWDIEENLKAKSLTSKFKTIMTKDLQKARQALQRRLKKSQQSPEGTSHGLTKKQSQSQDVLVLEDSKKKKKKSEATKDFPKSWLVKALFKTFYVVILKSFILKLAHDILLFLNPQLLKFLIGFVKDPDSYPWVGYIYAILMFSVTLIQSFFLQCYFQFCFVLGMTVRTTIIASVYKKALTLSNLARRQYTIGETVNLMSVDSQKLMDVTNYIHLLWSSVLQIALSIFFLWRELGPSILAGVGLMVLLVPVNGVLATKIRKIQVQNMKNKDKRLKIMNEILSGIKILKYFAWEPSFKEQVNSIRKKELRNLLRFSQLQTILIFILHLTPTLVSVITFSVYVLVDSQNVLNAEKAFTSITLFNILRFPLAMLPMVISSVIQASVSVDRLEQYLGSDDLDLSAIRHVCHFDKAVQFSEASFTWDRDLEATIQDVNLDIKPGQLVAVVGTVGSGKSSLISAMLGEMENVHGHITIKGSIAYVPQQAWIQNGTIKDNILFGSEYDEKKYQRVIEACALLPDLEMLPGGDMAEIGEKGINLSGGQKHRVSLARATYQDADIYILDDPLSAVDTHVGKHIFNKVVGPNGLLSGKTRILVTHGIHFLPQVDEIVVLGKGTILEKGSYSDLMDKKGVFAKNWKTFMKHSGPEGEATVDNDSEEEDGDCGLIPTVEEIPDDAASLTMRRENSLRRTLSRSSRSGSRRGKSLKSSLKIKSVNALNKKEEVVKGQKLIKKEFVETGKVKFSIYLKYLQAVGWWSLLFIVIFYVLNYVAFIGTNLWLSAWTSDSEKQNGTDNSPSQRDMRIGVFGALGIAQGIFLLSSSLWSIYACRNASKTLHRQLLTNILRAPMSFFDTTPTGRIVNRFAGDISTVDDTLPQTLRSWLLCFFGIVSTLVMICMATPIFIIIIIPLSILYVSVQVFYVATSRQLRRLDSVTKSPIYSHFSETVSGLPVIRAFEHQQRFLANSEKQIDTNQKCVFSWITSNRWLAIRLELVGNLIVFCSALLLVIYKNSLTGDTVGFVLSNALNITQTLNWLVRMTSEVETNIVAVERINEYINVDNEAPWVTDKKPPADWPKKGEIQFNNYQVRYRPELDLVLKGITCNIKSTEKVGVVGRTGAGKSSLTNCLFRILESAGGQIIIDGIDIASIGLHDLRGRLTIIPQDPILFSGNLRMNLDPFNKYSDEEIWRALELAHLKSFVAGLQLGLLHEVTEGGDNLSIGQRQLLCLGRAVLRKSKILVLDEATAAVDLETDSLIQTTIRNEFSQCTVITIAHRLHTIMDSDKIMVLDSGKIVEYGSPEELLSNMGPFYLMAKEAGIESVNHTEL

[6] = target: ATP-binding cassette sub-family C member 3 (Mus musculus, UniProt B2RX12); experiment: as §1
ATP-binding cassette sub-family C member 3, sequence (B2RX12 whole entry): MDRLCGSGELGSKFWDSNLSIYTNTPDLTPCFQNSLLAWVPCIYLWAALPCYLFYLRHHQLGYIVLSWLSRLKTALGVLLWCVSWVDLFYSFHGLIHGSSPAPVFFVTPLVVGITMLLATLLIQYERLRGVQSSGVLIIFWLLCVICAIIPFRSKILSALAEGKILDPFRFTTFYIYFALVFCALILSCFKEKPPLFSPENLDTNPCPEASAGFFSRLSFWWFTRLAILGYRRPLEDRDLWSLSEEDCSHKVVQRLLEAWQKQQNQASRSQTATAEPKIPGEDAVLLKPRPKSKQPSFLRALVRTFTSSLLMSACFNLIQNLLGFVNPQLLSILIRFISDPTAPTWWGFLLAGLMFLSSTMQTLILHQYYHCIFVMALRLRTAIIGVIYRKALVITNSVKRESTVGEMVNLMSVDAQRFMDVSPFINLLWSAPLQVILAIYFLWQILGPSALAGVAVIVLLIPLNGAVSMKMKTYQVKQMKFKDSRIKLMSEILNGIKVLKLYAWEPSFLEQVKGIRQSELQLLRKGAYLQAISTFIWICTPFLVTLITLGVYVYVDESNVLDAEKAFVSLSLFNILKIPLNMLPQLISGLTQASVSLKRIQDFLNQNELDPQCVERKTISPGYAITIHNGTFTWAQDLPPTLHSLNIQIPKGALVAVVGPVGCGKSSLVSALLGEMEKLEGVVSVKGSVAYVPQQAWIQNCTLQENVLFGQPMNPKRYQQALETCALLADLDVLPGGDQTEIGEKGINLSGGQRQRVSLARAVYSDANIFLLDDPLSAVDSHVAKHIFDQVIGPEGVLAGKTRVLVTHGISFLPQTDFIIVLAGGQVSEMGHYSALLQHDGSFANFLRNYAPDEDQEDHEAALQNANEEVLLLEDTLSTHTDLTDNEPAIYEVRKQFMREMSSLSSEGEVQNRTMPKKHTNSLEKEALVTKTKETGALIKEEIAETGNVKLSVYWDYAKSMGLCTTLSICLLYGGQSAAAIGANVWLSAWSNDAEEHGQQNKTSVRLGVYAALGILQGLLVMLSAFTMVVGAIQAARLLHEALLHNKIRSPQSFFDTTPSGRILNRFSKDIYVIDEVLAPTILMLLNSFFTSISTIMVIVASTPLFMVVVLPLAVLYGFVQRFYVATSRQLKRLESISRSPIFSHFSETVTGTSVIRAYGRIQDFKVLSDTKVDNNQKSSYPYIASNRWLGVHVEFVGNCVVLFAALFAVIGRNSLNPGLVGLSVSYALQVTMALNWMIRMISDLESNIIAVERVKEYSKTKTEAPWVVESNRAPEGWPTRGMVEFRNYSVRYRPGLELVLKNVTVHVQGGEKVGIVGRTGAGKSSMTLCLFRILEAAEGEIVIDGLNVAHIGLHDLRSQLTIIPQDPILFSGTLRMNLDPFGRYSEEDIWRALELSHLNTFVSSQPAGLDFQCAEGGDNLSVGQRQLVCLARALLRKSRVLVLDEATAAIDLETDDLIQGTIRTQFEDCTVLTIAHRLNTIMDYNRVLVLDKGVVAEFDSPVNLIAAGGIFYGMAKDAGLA

| Activity [1] | Activity [2] | Activity [3] | Activity [4] | Activity [5] | Activity [6] | Compound |
| --- | --- | --- | --- | --- | --- | --- |
| inducer [Decrease] | inducer [Decrease] | is not an inducer [-] | inducer [Decrease] | inducer [Decrease] | inducer [Decrease] | CCCCCCCCCCCCCC(=O)OC(CCCCCCCCCCC)CC(=O)OC1C(NC(=O)CC(CCCCCCCCCCC)OC(=O)CCCCCCCCCCC)C(OC2CC(OC(=O)CC(O)CCCCCCCCCCC)C(NC(=O)CC(O)CCCCCCCCCCC)C(O)O2)OC(CO)C1OP(=O)(O)O (stereo not given) |
| inducer [Decrease] | inducer [Decrease] | – | inducer [Decrease] | inducer [Decrease] | – | INTERLEUKIN 6 |

Continued, compound first:

| Compound | Activity [1] | Activity [2] | Activity [3] | Activity [4] | Activity [5] | Activity [6] |
| --- | --- | --- | --- | --- | --- | --- |
| C[C@H](CCC(=O)NCCS(=O)(=O)O)[C@H]1CC[C@H]2[C@@H]3CC[C@@H]4C[C@H](O)CC[C@]4(C)[C@H]3C[C@H](O)[C@]12C [TAURODEOXYCHOLIC ACID] | is not an inducer [-] | is not an inducer [-] | is not an inducer [-] | inducer [+] | is not an inducer [-] | – |
| INTERLEUKIN 1BETA | inducer [Decrease] | inducer [Decrease] | – | inducer [Decrease] | inducer [Decrease] | is not an inducer [-] |
| TURPENTINE | inducer [Decrease] | inducer [Decrease] | – | inducer [Decrease] | inducer [Decrease] | is not an inducer [-] |

Source: ChEMBL document CHEMBL2073975, “Inflammatory cytokines, but not bile acids, regulate expression of murine hepatic anion transporters in endotoxemia” (J Pharmacol Exp Ther, 2002)
